# Data reported in PubChem BioAssay AID330 (DTP/NCI, 2004).
# Where “and” joins values, the source holds several entries; their conditions need not be identical. Identical values can stand only once. Inconclusive results and toxic doses are left out.
# System: P388 leukemia ip, CD2F1 mice, survival T/C
# Assay: NCI In Vivo Anticancer Drug Screen. Data for tumor model P388 Leukemia (intraperitoneal) in CD2F1 (CDF1) mice
# Details: endpoint: median survival time, higher = longer survival
# How it was run: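 Mice carrying the transplanted tumor received test compound or vehicle. Survival was recorded in each group, and the value is the treated-group measurement divided by that of the vehicle-treated control group.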
# [1] = dose: 12.5 mg/kg/injection, schedule: Q01DX009 (ip), vehicle: other
# [2] = dose: 25.0 mg/kg/injection, schedule: Q01DX009 (ip), vehicle: other
# [3] = dose: 50.0 mg/kg/injection, schedule: Q01DX009 (ip), vehicle: other
# [4] = dose: 100.0 mg/kg/injection, schedule: Q01DX009 (ip), vehicle: other
# [5] = dose: 50.0 mg/kg/injection, schedule: Q01DX009 (ip), vehicle: saline
# [6] = dose: 50.0 mg/kg/injection, schedule: Q01DX009 (ip), vehicle: saline with Tween-80
# [7] = dose: 100.0 mg/kg/injection, schedule: Q01DX009 (ip), vehicle: saline with Tween-80
# [8] = dose: 200.0 mg/kg/injection, schedule: Q01DX009 (ip), vehicle: saline with Tween-80
# [9] = dose: 50.0 mg/kg/injection, schedule: Q01DX009 (ip), vehicle: Klucel (hydroxypropylcellulose) (HPC)
# [10] = dose: 100.0 mg/kg/injection, schedule: Q01DX009 (ip), vehicle: Klucel (hydroxypropylcellulose) (HPC)
# [11] = dose: 200.0 mg/kg/injection, schedule: Q01DX009 (ip), vehicle: Klucel (hydroxypropylcellulose) (HPC)
smiles,measurement,setting,value
CNC(=O)Sc1nnnc2ccccc12,T/C,"dose: 100.0 mg/kg/injection, schedule: Q01DX001 (ip), vehicle: saline with Tween-80",109 % of control
same,T/C,"dose: 200.0 mg/kg/injection, schedule: Q01DX001 (ip), vehicle: saline with Tween-80",104 % of control
same,T/C,"dose: 400.0 mg/kg/injection, schedule: Q01DX001 (ip), vehicle: saline with Tween-80",118 % of control
O=C(O)C(S)C(S)C(=O)O (centres undefined),T/C,[1],102 % of control
same,T/C,[2],108 % of control
same,T/C,[3],103 % of control
same,T/C,[4],94 % of control
same,T/C,"dose: 200.0 mg/kg/injection, schedule: Q01DX009 (ip), vehicle: other",90 % of control
C=C(C)c1ccc([Si](C)(C)C)cc1,T/C,[5],104 % of control
same,T/C,"dose: 100.0 mg/kg/injection, schedule: Q01DX009 (ip), vehicle: saline",101 % of control
same,T/C,"dose: 200.0 mg/kg/injection, schedule: Q01DX009 (ip), vehicle: saline",109 % of control
COc1ccc2cc3c(nc2c1N)C(=O)C(N1CC1)=C(N1CC1)C3=O,T/C,"dose: 25.0 mg/kg/injection, schedule: Q01DX005 (ip), vehicle: Klucel (hydroxypropylcellulose) (HPC)",98 % of control
same,T/C,"dose: 50.0 mg/kg/injection, schedule: Q01DX005 (ip), vehicle: Klucel (hydroxypropylcellulose) (HPC)",99 % of control
same,T/C,"dose: 100.0 mg/kg/injection, schedule: Q01DX005 (ip), vehicle: Klucel (hydroxypropylcellulose) (HPC)",100 % of control
same,T/C,"dose: 200.0 mg/kg/injection, schedule: Q01DX005 (ip), vehicle: Klucel (hydroxypropylcellulose) (HPC)",100 % of control
[Br][Pt+2][Br].[NH-]C1CCCC1[NH-] (centres undefined),T/C,"dose: 12.5 mg/kg/injection, schedule: Q04DX002 (ip), vehicle: saline with Tween-80",164 % of control
same,T/C,"dose: 25.0 mg/kg/injection, schedule: Q04DX002 (ip), vehicle: saline with Tween-80",197 % of control and 174 % of control
same,T/C,"dose: 50.0 mg/kg/injection, schedule: Q04DX002 (ip), vehicle: saline with Tween-80",93 % of control and 212 % of control
CCCC(=O)OC1C=C2N3C(=O)C4CC56C(=CC(OC(C)=O)C7OC75)N4C(=O)C3CC26C2OC12 (centres undefined),T/C,"dose: 0.13 mg/kg/injection, schedule: Q01DX005 (ip), vehicle: Klucel (hydroxypropylcellulose) (HPC)",100 % of control
same,T/C,"dose: 0.25 mg/kg/injection, schedule: Q01DX005 (ip), vehicle: Klucel (hydroxypropylcellulose) (HPC)",100 % of control
same,T/C,"dose: 0.5 mg/kg/injection, schedule: Q01DX005 (ip), vehicle: Klucel (hydroxypropylcellulose) (HPC)",100 % of control
same,T/C,"dose: 1.0 mg/kg/injection, schedule: Q01DX005 (ip), vehicle: Klucel (hydroxypropylcellulose) (HPC)",107 % of control
same,T/C,"dose: 2.0 mg/kg/injection, schedule: Q01DX005 (ip), vehicle: Klucel (hydroxypropylcellulose) (HPC)",99 % of control and 103 % of control
same,T/C,"dose: 4.0 mg/kg/injection, schedule: Q01DX005 (ip), vehicle: Klucel (hydroxypropylcellulose) (HPC)",96 % of control
O=C1c2ccncc2C(=O)c2c1[nH]c1ccccc21,T/C,"dose: 7.5 mg/kg/injection, schedule: Q04DX002 (ip), vehicle: Klucel (hydroxypropylcellulose) (HPC)",97 % of control
same,T/C,"dose: 15.0 mg/kg/injection, schedule: Q04DX002 (ip), vehicle: Klucel (hydroxypropylcellulose) (HPC)",95 % of control
same,T/C,"dose: 30.0 mg/kg/injection, schedule: Q04DX002 (ip), vehicle: Klucel (hydroxypropylcellulose) (HPC)",90 % of control and 97 % of control
same,T/C,"dose: 60.0 mg/kg/injection, schedule: Q04DX002 (ip), vehicle: Klucel (hydroxypropylcellulose) (HPC)",95 % of control
CC(C)(C)OP(=S)(OC(C)(C)C)OC(C)(C)C,T/C,"dose: 100.0 mg/kg/injection, schedule: Q04DX002 (ip), vehicle: saline with Tween-80",96 % of control
same,T/C,"dose: 200.0 mg/kg/injection, schedule: Q04DX002 (ip), vehicle: saline with Tween-80",108 % of control
same,T/C,"dose: 400.0 mg/kg/injection, schedule: Q04DX002 (ip), vehicle: saline with Tween-80",106 % of control
CC(C)(C)NC(=O)NCCCCCCNC(=O)NC(C)(C)C,T/C,"dose: 60.0 mg/kg/injection, schedule: Q01DX005 (ip), vehicle: saline with Tween-80",96 % of control
same,T/C,"dose: 120.0 mg/kg/injection, schedule: Q01DX005 (ip), vehicle: saline with Tween-80",96 % of control
same,T/C,"dose: 240.0 mg/kg/injection, schedule: Q01DX005 (ip), vehicle: saline with Tween-80",101 % of control
CC12OC3(C)c4ccccc4OP3(c3ccccc3)(Oc3ccccc31)O2 (centres undefined),T/C,[6],99 % of control
same,T/C,[7],97 % of control
same,T/C,[8],88 % of control
CCCCC/C(C=O)=C\c1ccccc1,T/C,"dose: 100.0 mg/kg/injection, schedule: Q04DX003 (ip), vehicle: saline with Tween-80",118 % of control
same,T/C,"dose: 200.0 mg/kg/injection, schedule: Q04DX003 (ip), vehicle: saline with Tween-80",100 % of control
same,T/C,"dose: 400.0 mg/kg/injection, schedule: Q04DX003 (ip), vehicle: saline with Tween-80",109 % of control
CC[C@]12CCCN3CCc4c(n(c5ccccc45)C(=O)C1)[C@@H]32,T/C,[9],95 % of control
same,T/C,[10],107 % of control
same,T/C,[11],91 % of control
CN1C2CCC1CC(OC(=O)CBr)C2 (centres undefined),T/C,"dose: 12.5 mg/kg/injection, schedule: Q01DX009 (ip), vehicle: saline",115 % of control
same,T/C,"dose: 25.0 mg/kg/injection, schedule: Q01DX009 (ip), vehicle: saline",107 % of control
same,T/C,[5],117 % of control and 120 % of control
O=P(N1CC=CCC1)(N1CC1)N1CC1,T/C,"dose: 4.4 mg/kg/injection, schedule: Q04DX003 (ip), vehicle: saline",118 % of control
same,T/C,"dose: 5.56 mg/kg/injection, schedule: Q01DX009 (ip), vehicle: saline",154 % of control
same,T/C,"dose: 6.6 mg/kg/injection, schedule: Q04DX003 (ip), vehicle: saline",113 % of control
same,T/C,"dose: 8.33 mg/kg/injection, schedule: Q01DX009 (ip), vehicle: saline",209 % of control
same,T/C,"dose: 10.0 mg/kg/injection, schedule: Q04DX003 (ip), vehicle: saline",118 % of control
CCN(CC)Cc1c(C)[nH]c2c3c(ccc2c1=O)Oc1c(ccc2c(=O)c(CN(CC)CC)c(C)[nH]c12)O3,T/C,[9],96 % of control
same,T/C,[10],93 % of control
same,T/C,[11],96 % of control
CC(=O)NCC(C)c1ccccc1 (centres undefined),T/C,"dose: 25.0 mg/kg/injection, schedule: Q01DX009 (ip), vehicle: saline with Tween-80",102 % of control
Cc1nc(Cl)c(C)c(C(=O)O)n1,T/C,"dose: 6.25 mg/kg/injection, schedule: Q01DX009 (ip), vehicle: other",117 % of control
same,T/C,[1],114 % of control
same,T/C,[2],107 % of control
same,T/C,[3],99 % of control
same,T/C,[4],98 % of control
Nc1ccc(Cl)cn1,T/C,[6],90 % of control
same,T/C,[7],99 % of control
same,T/C,[8],99 % of control
CSC(C(O)C(O)C(O)C(O)CO)n1cnc2c(=S)nc[nH]c21 (centres undefined),T/C,"dose: 50.0 mg/kg/injection, schedule: Q01DX005 (ip), vehicle: saline with Tween-80",99 % of control
same,T/C,"dose: 100.0 mg/kg/injection, schedule: Q01DX005 (ip), vehicle: saline with Tween-80",96 % of control
same,T/C,"dose: 200.0 mg/kg/injection, schedule: Q01DX005 (ip), vehicle: saline with Tween-80",99 % of control
COC(=O)C12CN3CC(C)(C1)C(=O)C(C)(C3)C2=O (centres undefined),T/C,"dose: 30.0 mg/kg/injection, schedule: Q01DX005 (ip), vehicle: Klucel (hydroxypropylcellulose) (HPC)",100 % of control
same,T/C,"dose: 60.0 mg/kg/injection, schedule: Q01DX005 (ip), vehicle: Klucel (hydroxypropylcellulose) (HPC)",103 % of control and 107 % of control
same,T/C,"dose: 120.0 mg/kg/injection, schedule: Q01DX005 (ip), vehicle: Klucel (hydroxypropylcellulose) (HPC)",107 % of control
same,T/C,"dose: 240.0 mg/kg/injection, schedule: Q01DX005 (ip), vehicle: Klucel (hydroxypropylcellulose) (HPC)",89 % of control
O=C1c2ccccc2-c2c3c(cc4ccnc1c24)OCO3,T/C,"dose: 3.12 mg/kg/injection, schedule: Q01DX009 (ip), vehicle: saline with Tween-80",115 % of control
same,T/C,"dose: 6.25 mg/kg/injection, schedule: Q01DX009 (ip), vehicle: Klucel (hydroxypropylcellulose) (HPC)",101 % of control
same,T/C,"dose: 6.25 mg/kg/injection, schedule: Q01DX009 (ip), vehicle: saline with Tween-80",105 % of control
same,T/C,"dose: 12.5 mg/kg/injection, schedule: Q01DX009 (ip), vehicle: Klucel (hydroxypropylcellulose) (HPC)",97 % of control
same,T/C,"dose: 12.5 mg/kg/injection, schedule: Q01DX009 (ip), vehicle: saline with Tween-80",89 % of control
same,T/C,"dose: 25.0 mg/kg/injection, schedule: Q01DX009 (ip), vehicle: Klucel (hydroxypropylcellulose) (HPC)",99 % of control
same,T/C,[9],100 % of control
same,T/C,[6],99 % of control
same,T/C,[7],99 % of control
